From patent US11370794B2, “Toll-like receptor antagonist compounds and methods of use” (Dynavax Technologies Corporation, priority 2016, dated 2022)
pIC50: −log10 of the molar value. Read-outs that look alike come from different tables or passages of the source.

Legend:
human TLR8 = target: T1, human TLR8 (Homo sapiens, UniProt Q9NR97); assay: Inhibition of human TLR8 in human monocytes (TNF-alpha / IL-1 beta ELISA); assay type: cell-based; details: for pIC50: human monocytes, agonist ORN8L 100 μg/mL, 24 hours
T1 construct: endogenous in cells; host or cells: primary human monocytes (CD14 microbeads) from buffy coats of healthy donors
T1 sequence (Q9NR97 27-1041): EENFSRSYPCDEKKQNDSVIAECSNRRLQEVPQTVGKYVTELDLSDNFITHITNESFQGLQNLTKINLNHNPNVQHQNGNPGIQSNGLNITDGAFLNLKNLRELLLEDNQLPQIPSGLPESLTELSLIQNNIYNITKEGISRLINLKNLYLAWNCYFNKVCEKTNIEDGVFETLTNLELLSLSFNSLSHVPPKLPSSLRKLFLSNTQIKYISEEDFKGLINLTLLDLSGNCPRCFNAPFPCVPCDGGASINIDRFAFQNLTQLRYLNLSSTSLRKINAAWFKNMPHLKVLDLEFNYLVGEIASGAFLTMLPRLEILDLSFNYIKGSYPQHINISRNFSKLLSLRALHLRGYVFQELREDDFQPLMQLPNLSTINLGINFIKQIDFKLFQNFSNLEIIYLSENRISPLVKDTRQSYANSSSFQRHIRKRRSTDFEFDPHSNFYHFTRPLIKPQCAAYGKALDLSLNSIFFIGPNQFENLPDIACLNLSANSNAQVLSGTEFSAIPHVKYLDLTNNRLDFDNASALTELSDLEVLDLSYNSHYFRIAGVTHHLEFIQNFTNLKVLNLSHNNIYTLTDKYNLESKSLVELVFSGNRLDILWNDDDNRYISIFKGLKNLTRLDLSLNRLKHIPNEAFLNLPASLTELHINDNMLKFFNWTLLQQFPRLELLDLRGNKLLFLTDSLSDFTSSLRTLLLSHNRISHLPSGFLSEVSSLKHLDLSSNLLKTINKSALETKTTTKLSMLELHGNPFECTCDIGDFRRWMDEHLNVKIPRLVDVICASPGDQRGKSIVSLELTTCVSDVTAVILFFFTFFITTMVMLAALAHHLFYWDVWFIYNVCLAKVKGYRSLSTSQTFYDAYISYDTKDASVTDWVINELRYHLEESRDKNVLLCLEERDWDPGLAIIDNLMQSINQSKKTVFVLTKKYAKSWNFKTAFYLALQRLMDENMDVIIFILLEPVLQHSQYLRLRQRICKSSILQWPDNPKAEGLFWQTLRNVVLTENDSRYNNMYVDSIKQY
Description: Example B2—Inhibition of Human TLR8 in Human Monocytes
When placed in cell culture, engagement of TLR8 with an agonist leads to expression and release of cytokines into the media.
Buffy coats from anonymized, healthy human donors. CD14 microbeads (Milteny Cat. No. 130-050-201). TLR8 agonist, (5′-M2UGCUGCUUGUG-/glycerol/-GUGUUCGUCGUM2-5′ with M2=C6-linker, ORN8L, RNA oligonucleotide (Chem Genes Corp.). Human TNF-alpha ELISA kit (Mabtech Cat. No. 3510-1H-20). Human interleukin (IL)-1 beta ELISA kit (Mabtech Cat. No. 3415-1H-20).
Following isolation of monocytes from buffy coats, human monocytes were plated into 96 well plates at approximately 200,000 cells per well. Test compounds were serially diluted and added to the plates. Immediately after adding test compounds, the TLR8 agonist (ORN8L, RNA oligonucleotide) was added to a final concentration of 100 μg/mL. Cells were incubated for 24 hours at 37° C. A portion of the media supernatant was analyzed for the presence of TNF-alpha and/or IL-1 beta using ELISA kits. The amount of TNF-alpha or IL-1 beta produced is a reflection of the amount of TLR8-dependent receptor activity. The IC50 values (the concentration at which 50% of the TLR8-dependent receptor activity is reduced) were calculated based upon the TLR8-dependent receptor activity over a range of different test compound concentrations.

human TLR9 = target: T2, human TLR9 (Homo sapiens, UniProt Q9NR96); assay: Inhibition of human TLR9 in human B cells (IL-6 ELISA); assay type: cell-based; details: for pIC50: human B cells, agonist 1018 ISS 1 μM; for inhibits TLR9-dependent responses (in words): summary statement of the description
T2 construct: endogenous in cells; host or cells: primary human B cells (CD19 microbeads) from buffy coats of healthy donors
T2 sequence (Q9NR96 26-1032): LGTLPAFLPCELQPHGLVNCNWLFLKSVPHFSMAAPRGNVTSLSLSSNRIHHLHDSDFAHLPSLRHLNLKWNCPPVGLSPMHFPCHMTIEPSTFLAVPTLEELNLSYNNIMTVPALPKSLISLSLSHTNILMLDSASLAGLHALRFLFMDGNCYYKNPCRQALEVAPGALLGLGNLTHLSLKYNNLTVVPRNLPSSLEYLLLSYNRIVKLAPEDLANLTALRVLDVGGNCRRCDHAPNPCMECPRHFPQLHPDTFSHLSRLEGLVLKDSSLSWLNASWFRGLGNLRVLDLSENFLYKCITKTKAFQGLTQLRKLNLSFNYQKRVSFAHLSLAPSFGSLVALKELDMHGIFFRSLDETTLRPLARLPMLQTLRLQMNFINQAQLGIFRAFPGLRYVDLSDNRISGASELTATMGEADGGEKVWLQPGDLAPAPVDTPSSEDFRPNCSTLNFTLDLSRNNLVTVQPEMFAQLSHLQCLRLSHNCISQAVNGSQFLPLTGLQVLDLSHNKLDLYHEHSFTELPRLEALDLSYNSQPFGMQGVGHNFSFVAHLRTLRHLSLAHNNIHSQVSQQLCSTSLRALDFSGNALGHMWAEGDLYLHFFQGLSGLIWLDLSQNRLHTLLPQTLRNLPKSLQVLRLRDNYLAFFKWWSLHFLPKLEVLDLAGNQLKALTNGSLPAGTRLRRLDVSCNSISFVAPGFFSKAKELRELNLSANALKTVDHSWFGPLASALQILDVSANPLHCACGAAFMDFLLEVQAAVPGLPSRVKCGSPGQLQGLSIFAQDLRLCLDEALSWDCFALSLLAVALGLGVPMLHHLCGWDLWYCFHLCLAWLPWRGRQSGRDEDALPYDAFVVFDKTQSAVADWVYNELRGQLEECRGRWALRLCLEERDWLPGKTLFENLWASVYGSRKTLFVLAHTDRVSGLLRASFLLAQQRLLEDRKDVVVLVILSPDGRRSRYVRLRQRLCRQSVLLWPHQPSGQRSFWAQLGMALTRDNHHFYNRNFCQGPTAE
Protocol: Example B3—Inhibition of Human TLR9 in Human B Cells
When placed in cell culture, engagement of TLR9 with an agonist leads to expression and release of cytokines into the media.
Buffy coats from anonymized, healthy human donors. CD19 microbeads (Miltenyi Cat. No. 130-050-301). TLR9 agonist, 1018 ISS, CpG-containing DNA oligonucleotide. Human interleukin (IL)-6 ELISA kit (Mabtech Cat. No. 3460-1H-20).
Following isolation of […] from buffy coats, human B cells were plated into 96 well plates at approximately 300,000 cells per well. Test compounds were serially diluted and added to the plates. Test compounds were typically assayed using a concentration range from about 0.01 μM to about 10 μM. Certain test compounds were further assayed in an expanded dilution series using a compound concentration range from about 0.001 μM to about 30 μM. Immediately after adding test compounds, the TLR9 agonist (1018 ISS, CpG-containing DNA oligonucleotide) was added to a final concentration of 1 μM. Cells were incubated for 48 hours at 37° C. A portion of the media supernatant was analyzed for the presence of IL-6 using ELISA kits. The amount of IL-6 produced is a reflection of the amount of TLR9-dependent receptor activity. The IC50 values (the concentration at which 50% of the TLR9-dependent receptor activity is reduced) were calculated based upon the TLR9-dependent receptor activity over a range of different test compound concentrations.

[1] = IL-1 beta readout, read-out: Human TLR8 IC50 IL-1b
[2] = TNF-alpha readout, read-out: Human TLR8 IC50 TNF-a
[3] = IL-6 readout, 48 hours, range about 0.01 to 10 μM, read-out: Human TLR9 IC50

Q: Which results are given for `CCN(CC)CCCNC(=O)C1CCN(c2nnc(C)c3c(C)n(-c4ccc(OC)cc4)nc23)CC1` [9x, N-(3-(diethylamino)propyl)-1-(2-(4-methoxyphenyl)-3,4-dimethyl-2H-pyrazolo[3,4-d]pyridazin-7-yl)piperidine-4-carboxamide]?
A: pIC50 (human TLR8; [1]): < 5.00; pIC50 (human TLR8; [2]): < 5.00; pIC50 (human TLR9; [3]): 7.40; inhibits TLR9-dependent responses (in words) (human TLR9): inhibit

Q: How did the pIC50 (human TLR8; [2]) turn out when `Cc1ccc(-n2nc3c(N4CCC(C(=O)N5CCC6(CN(C)C6)C5)CC4)nnc(C)c3c2C)cc1` [compound 75, (1-(3,4-dimethyl-2-(p-tolyl)-2H-pyrazolo[3,4-d]pyridazin-7-yl)piperidin-4-yl)(2-methyl-2,6-diazaspiro[3.4]octan-6-yl)methanone] was run?
A: ≤ 4.70

Q: What about the pIC50 (human TLR9; [3]) of the same molecule?
A: 7.60

Q: With `CCN(CC)C1CCN(C(=O)C2CCN(c3nncc4cn(-c5ccc(C)cc5)nc34)CC2)CC1` [compound 59, (4-(diethylamino)piperidin-1-yl)(1-(2-(p-tolyl)-2H-pyrazolo[3,4-d]pyridazin-7-yl)piperidin-4-yl)methanone] as the molecule, how does the pIC50 (human TLR8; [2]) read?
A: 6.11

Q: And the pIC50 (human TLR9; [3])?
A: 8.22

Q: `CNC(=O)C1CCN(c2nnc(C)c3c(C)n(-c4ccc(C)cc4)nc23)C1` (stereo not drawn) [compound 57, 1-(3,4-dimethyl-2-(p-tolyl)-2H-pyrazolo[3,4-d]pyridazin-7-yl)-N-methylpyrrolidine-3-carboxamide] was tested. Which pIC50 (human TLR8; [2]) did it give?
A: ≤ 4.70

Q: And the pIC50 (human TLR9; [3])?
A: 5.03

Q: `Cc1ccc(-c2nc3c(N4CCC(C(=O)NCCCN(C)C)CC4)cccc3n2C)cc1` [Compound No. 53, N-(3-(dimethylamino)propyl)-1-(1-methyl-2-(p-tolyl)-1H-benzo[d]imidazol-4-yl)piperidine-4-carboxamide] was tested. Which pIC50 (human TLR8; [2]) did it give?
A: ≤ 4.70

Q: And the pIC50 (human TLR9; [3])?
A: 5.65

Q: `Cc1ccc(-n2nc3c(N4CCC(C(=O)NCCCc5ccccc5)CC4)nnc(C)c3c2C)cc1` [2-6] was tested. Which pIC50 (human TLR8; [1]) did it give?
A: < 5.00

Q: What about the pIC50 (human TLR8; [2]) of the same molecule?
A: < 5.00

Q: And the pIC50 (human TLR9; [3])?
A: < 5.00

Q: `Cc1ccc(-n2nc3c(N4CCC(C(=O)N5CC6CNCC6C5)CC4)nnc(C)c3c2C)cc1` (stereo not drawn) [compound 71, (1-(3,4-dimethyl-2-(p-tolyl)-2H-pyrazolo[3,4-d]pyridazin-7-yl)piperidin-4-yl) (hexahydropyrrolo[3,4-c]pyrrol-2(1H)-yl)methanone] was tested. Which pIC50 (human TLR8; [2]) did it give?
A: ≤ 4.70

Q: And the pIC50 (human TLR9; [3])?
A: 6.23

Q: How did the pIC50 (human TLR8; [1]) turn out when `CCCN1CCN(C(=O)C2CCCN(c3nnc(C)c4c(C)n(-c5ccccc5)nc34)C2)CC1` (stereo not drawn) [63x, (1-(3,4-dimethyl-2-phenyl-2H-pyrazolo[3,4-d]pyridazin-7-yl)piperidin-3-yl)(4-propylpiperazin-1-yl)methanone] was run?
A: 6.00

Q: What about the pIC50 (human TLR8; [2]) of the same molecule?
A: 5.95

Q: And the pIC50 (human TLR9; [3])?
A: 7.74

Q: What does the source list for `Cc1ccc(-n2nc3c(N4CCC(C(=O)N5CCC(CN(C)C)C5)CC4)nnc(C)c3c2C)cc1` (stereo not drawn) [compound 45, (1-(3,4-dimethyl-2-(p-tolyl)-2H-pyrazolo[3,4-d]pyridazin-7-yl)piperidin-4-yl)(3-((dimethylamino)methyl)pyrrolidin-1-yl)methanone]?
A: pIC50 (human TLR8; [2]): ≤ 4.70; pIC50 (human TLR9; IL-6, 48 hours, expanded dilution series about 0.001 to 30 μM, read-out: Human TLR9 IC50, expanded dilution series): 7.85; pIC50 (human TLR9; [3]): 9.00; inhibits TLR9-dependent responses (in words) (human TLR9): inhibit

Q: Which results are given for `Cc1ccc(-n2nc3c(N4CCC(C(=O)N5CCC(N(C)Cc6ccccc6)CC5)CC4)nnc(C)c3c2C)cc1` [compound 67, (4-(benzyl(methyl)amino)piperidin-1-yl)(1-(3,4-dimethyl-2-(p-tolyl)-2H-pyrazolo[3,4-d]pyridazin-7-yl)piperidin-4-yl)methanone]?
A: pIC50 (human TLR8; [2]): 6.32; inhibits TLR8-dependent responses (in words) (human TLR8; summary statement of the description): inhibit; pIC50 (human TLR9; [3]): 7.31; inhibits TLR9-dependent responses (in words) (human TLR9): inhibit

Q: Which results are given for `Cc1ccc(-n2nc3c(N4CCC(C(=O)NC5CCN(C)CC5)CC4)nnc(C)c3c2C)cc1` [compound 18, 1-(3,4-dimethyl-2-(p-tolyl)-2H-pyrazolo[3,4-d]pyridazin-7-yl)-N-(1-methylpiperidin-4-yl)piperidine-4-carboxamide]?
A: pIC50 (human TLR8; [1]): < 5.00; pIC50 (human TLR8; [2]): < 5.00; pIC50 (human TLR9; [3]): 6.86

Q: With `Cc1ccc(-n2nc3c(N4CCC(C(=O)NCCCCCc5ccccc5)CC4)nnc(C)c3c2C)cc1` [2-12] as the molecule, how does the pIC50 (human TLR8; [1]) read?
A: < 5.00

Q: What about the pIC50 (human TLR8; [2]) of the same molecule?
A: < 5.00

Q: What about the pIC50 (human TLR9; [3]) of the same molecule?
A: 6.37

Q: `Cc1ccc(-n2nc3c(N4CCC(C(=O)NCCN5CCOCC5)CC4)nnc(C)c3c2C)cc1` [17x, 1-(3,4-dimethyl-2-(p-tolyl)-2H-pyrazolo[3,4-d]pyridazin-7-yl)-N-(2-morpholinoethyl)piperidine-4-carboxamide] was tested. Which pIC50 (human TLR8; [2]) did it give?
A: ≤ 4.70

Q: And the pIC50 (human TLR9; [3])?
A: 7.77

Q: And the “inhibits TLR9-dependent responses (in words)” value (human TLR9)?
A: inhibit

Q: How did the pIC50 (human TLR8; [2]) turn out when `Cc1ccc(-n2nc3c(N4CCC(C(=O)N5CC6CN(C)CC6C5)CC4)nnc(C)c3c2C)cc1` (stereo not drawn) [compound 72, (1-(3,4-dimethyl-2-(p-tolyl)-2H-pyrazolo[3,4-d]pyridazin-7-yl)piperidin-4-yl)(5-methylhexahydropyrrolo[3,4-c]pyrrol-2(1H)-yl)methano] was run?
A: 5.04

Q: And the pIC50 (human TLR9; [3])?
A: 7.92
